From BindingDB's records for doi:10.1016/j.bioorg.2016.07.008 (Universiti Teknologi Mara, 2016)

molecular target: T1, Beta-glucuronidase (Homo sapiens, UniProt P08236); assay: β-Glucuronidase Bioassay
T1 sequence (P08236 whole entry): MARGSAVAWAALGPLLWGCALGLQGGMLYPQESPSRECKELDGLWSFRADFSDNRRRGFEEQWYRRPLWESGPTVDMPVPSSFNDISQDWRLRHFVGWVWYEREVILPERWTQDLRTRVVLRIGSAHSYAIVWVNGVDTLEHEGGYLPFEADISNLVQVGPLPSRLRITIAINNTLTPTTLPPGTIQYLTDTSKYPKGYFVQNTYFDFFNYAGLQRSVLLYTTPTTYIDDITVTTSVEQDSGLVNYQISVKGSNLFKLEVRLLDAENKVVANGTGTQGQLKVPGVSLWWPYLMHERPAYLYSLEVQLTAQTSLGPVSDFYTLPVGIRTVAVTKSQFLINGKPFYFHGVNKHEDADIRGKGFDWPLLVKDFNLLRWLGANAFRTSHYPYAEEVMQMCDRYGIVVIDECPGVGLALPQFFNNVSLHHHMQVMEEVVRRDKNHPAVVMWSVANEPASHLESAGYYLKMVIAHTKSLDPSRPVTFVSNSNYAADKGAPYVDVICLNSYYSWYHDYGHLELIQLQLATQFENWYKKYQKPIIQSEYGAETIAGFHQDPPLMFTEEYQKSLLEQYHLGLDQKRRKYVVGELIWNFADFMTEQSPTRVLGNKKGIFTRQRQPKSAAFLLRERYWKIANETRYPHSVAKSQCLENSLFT
Procedure: The total reaction volume was 250 µL. The reaction mixture contained 185 µL of 0.1 M acetate buffer, 5 µL of test compound solution, 10 µL of enzyme solution was incubated at 37 °C for 30 min. […] All assays were run in triplicate.

SMILES	IC50 [µM]
O=C(NNC(=S)Nc1ccc([N+](=O)[O-])cc1)c1ccc(C(c2c[nH]c3ccccc23)c2c[nH]c3ccccc23)cc1 [2-(4-(Di(1H-indol-3-yl)methyl)benzoyl)-N-(4-nitrophenyl)hydrazinecarbothioamide (10)]	12
O=C(NNC(=S)Nc1ccc(Br)cc1)c1ccc(C(c2c[nH]c3ccccc23)c2c[nH]c3ccccc23)cc1 [N-(4-Bromophenyl)-2-(4-(di(1H-indol-3-yl)methyl)benzoyl)hydrazinecarbothioamide (7)]	33.2
Cc1ccc(NC(=S)NNC(=O)c2ccc(C(c3c[nH]c4ccccc34)c3c[nH]c4ccccc34)cc2)cc1 [2-(4-(Di(1H-indol-3-yl)methyl)benzoyl)-N-(p-tolyl)hydrazinecarbothioamide (5)]	15

More lines, now with the values ahead:

IC50 [µM]	SMILES
11.6	COc1ccc(NC(=S)NNC(=O)c2ccc(C(c3c[nH]c4ccccc34)c3c[nH]c4ccccc34)cc2)cc1 [2-(4-(Di(1H-indol-3-yl)methyl)benzoyl)-N-(4-methoxyphenyl)hydrazinecarbothioamide (9)]
21.4	O=C(NNC(=S)Nc1cccc(Br)c1)c1ccc(C(c2c[nH]c3ccccc23)c2c[nH]c3ccccc23)cc1 [N-(3-Bromophenyl)-2-(4-(di(1H-indol-3-yl)methyl)benzoyl)hydrazinecarbothioamide (13)]
14.7	Cc1cccc(NC(=S)NNC(=O)c2ccc(C(c3c[nH]c4ccccc34)c3c[nH]c4ccccc34)cc2)c1 [2-(4-(Di(1H-indol-3-yl)methyl)benzoyl)-N-(m-tolyl)hydrazinecarbothioamide (11)]
9.4	COc1ccccc1NC(=S)NNC(=O)c1ccc(C(c2c[nH]c3ccccc23)c2c[nH]c3ccccc23)cc1 [2-(4-(Di(1H-indol-3-yl)methyl)benzoyl)-N-(2-methoxyphenyl)hydrazinecarbothioamide (18)]
28.1	COc1cccc(NC(=S)NNC(=O)c2ccc(C(c3c[nH]c4ccccc34)c3c[nH]c4ccccc34)cc2)c1 [2-(4-(Di(1H-indol-3-yl)methyl)benzoyl)-N-(3-methoxyphenyl)hydrazinecarbothioamide (15)]
